Experiments:
[1] = system: brain myelination; test: Cross-sectional correlation of infant formula nutrient content with brain myelin content (mcDESPOT MRI, myelin water fraction); format: in vivo, human; conditions: formula-fed children up to 5 years
From the text: MRI (Magnetic Resonance Imaging): MRI brain scans of infants and children between 0 and 5 years were acquired using a white matter imaging technique. This technique provides a quantitative measure, the Myelin Water Fraction (MWF), which is a surrogate marker of myelin content in the brain. When mapped as a function of time across early childhood, myelination trajectories can be generated.
Each infant was scanned using the mcDESPOT (multicomponent Driven Equilibrium Single Pulse Observation of T1 and T2) white matter imaging technique Deoni et al. (Magn. Reson. Med. 2008, 60:1372-1387), which provides a quantitative measure of the myelin water fraction (MWF)—a measure of myelin content—at each point throughout the brain. All infants were scanned during natural (i.e. non-sedated) sleep using acoustically-muffled mcDESPOT imaging protocols. Total imaging times ranged from 19 minutes for the youngest toddlers to 24 minutes for the older 4 year-old children.
Following image alignment, non-brain signal removal, and correction for main and transmit magnetic field (B0 and B1) inhomogeneities, a three-pool signal model (comprising the myelin-associated water; intra-extra axonal water; and a non-exchanging free-water pool) was fit to the mcDESPOT data to derive voxel-wise MWF maps.
Each child's map was then non-linearly aligned to a study specific template. White matter masks, corresponding to 5 bilateral regions (frontal, temporal, occipital, parietal, and cerebellar WM) as well as the body, genu, and splenium of the corpus callosum were created from common databases, registered to the common template, and superimposed onto each child's MWF map. Mean values for each region were then determined for each child and used for subsequent developmental analysis and trajectory modeling.
From the cohort described above, children up to 5 years of age that were fed different infant formulas during infancy were included in a large correlation analysis to examine the relationship between formula nutrient composition and brain myelination. The 5 most frequently used formulas in that cohort were analyzed for their nutritional composition. A single general linear model (GLM) was constructed that modeled all quantified nutrients and child age.
Spearman rank correlations were then calculated between the nutrient content and myelin content value (adjusted for child age) at each image voxel, or point within the brain. Significance was defined as p<0.05 corrected for type 1 error using a cluster based correction approach. An association or trend was defined as p<0.15. […] To reduce the number of nutritional components in the model, we examined the inter-nutritional correlation. Using a conservative threshold of 0.9, we excluded nutritional components that were highly correlated with each other across the various formulas.

[2] = system: neural progenitor cell (NPCs); test: Neurosphere counts in 96-well plates; format: cell-based, mouse; conditions: control 103
Protocol: Generation of neural progenitor cell (NPCs) libraries:
dissociation of E14 mouse neocortex
Plating Cells in 96-Well Plates for Neurosphere Counts and Diameters Only
3-4 mLs of cells were taken out of the tilted plate and add to a 15 ml conical. Some of the remaining media was used to rinse down the plate. All remaining media was drawn up and put into a 15 ml conical tube, and Spun at 130G for 5 min. All media was removed. The cells were gently resuspended in 5 mls of warm PBS, spun again. PBS was then removed and the cells were then gently resuspended in 500 μl of Accutase(Corning™ Accutase™ Cell Detachment Solution, #25058CI). The cells were then Pipetted gently with a 1000p tip to break up pellet, and then they were placed in a shaking water bath for 5-10 minutes, after which time they were swirled by hand frequently.
1 ml was taken off to count cells. The cells were spun again. Media was removed from the cell pellet. 1 mls of prepared media (no GF) was added. The cells were pipetted with a 1000 ul pipette. Cell dilutions (24,000
cells/well) in 250 μL of appropriate media were made. Cells were swirled daily and grown for 2 days.
1. The cells were fixed in the hood. For fixation and subsequent immunohistochemical analysis 100 ul of medium was removed and 100 ul 4% PFA in 1×PBS was added to fix the cells whilst counting the neurospheres by hand, then the cells were washed twice with 1×PBS for 5 min, and left in 1×PBS, wrapped in foil and left overnight at 4° C., or Dapi staining was carried out. 100 uL of PBS was removed and 100 uL
in AB staining solution for five min. Imaging was carried out using a GE Cytell imager or LSM 710, Zeiss confocal microscope and the diameters of neurospheres with ImageJ software (National Institutes of Health) was analysed.

[3] = system: neural progenitor cell (NPCs); test: Monolayer culture NPC proliferation assay; format: cell-based, mouse; conditions: control 262
Protocol: Monolayer Culture NPC Proliferation Assay (Incorporation of EdU—S Phase Marker
After 24 h, it was ensured that cells had attached to the plate then the medium was carefully removed. 500 μL of compound media plus GF.was added. The cells were cultured for 3 days in appropriate media.
EDU incorporation was measured using Click-iT® EdU Alexa Fluor® 555 Imaging Kit
At the end of day 3 EdU was added to each well at 10 μM for 30 minutes prior to fixation.
For fixation and subsequent immunohistochemical analysis, the medium was removed, the cells were rinsed once with 1×PBS for 5 min, and fixed with 4% PFA in 1×PBS for 15 min at 4° C., then the cells were washed twice with 1×PBS for 5 min, left in 1×PBS, wrapped in foil and leave overnight at 4° C., or staining was proceeded with.
serum, 1×PBS, and 0.1% triton X) added to cover the bottom, the block was kept at room temp for 1 hour. The cells were stained for EDU. The cells were Incubated for 30 min at room temp, in the dark. The cells were washed with 1×PBS and stained with Dapi 1:5000 ul for 15 min. The cells were washed once with 1×PBS, then left in PBS at 4° C., or Imaged immediately using a GE Cytell imager (cell viability

[4] = high dose sphingomyelin (Dose 3: 1 μm)
[5] = low dose sphingomyelin (Dose 1: 10 nM)
[6] = med dose sphingomyelin (Dose 2: 100 nM)

Row | Compound | association with myelination (myelin water fraction) over time in the brain [1] | also measured
1 | CCCCC/C=C\C/C=C\C/C=C\C/C=C\CCCC(=O)O [AA, arachidonic acid] | an association with myelination (myelin water fraction) was observed over time in the brain | –
2 | [Ca+2] [calcium] | an association with myelination (myelin water fraction) was observed over time in the brain | –
3 | [Mg+2] [magnesium] | an association with myelination (myelin water fraction) was observed over time in the brain | –
4 | [P] [phosphorus] | an association with myelination (myelin water fraction) was observed over time in the brain | –
5 | [Zn] [zinc] | an association with myelination (myelin water fraction) was observed over time in the brain | –
6 | iron | an association with myelination (myelin water fraction) was observed over time in the brain | –
7 | phosphatidylcholine | an association with myelination (myelin water fraction) was observed over time in the brain | –
8 | phosphatidylinositol | an association with myelination (myelin water fraction) was observed over time in the brain | –
9 | sphingomyelin | an association with myelination (myelin water fraction) was observed over time in the brain | number of neurospheres, Average (Mean) [2, 4]: 219; number of neurospheres, Average (Mean) [2, 5]: 94; number of neurospheres, Average (Mean) [2, 6]: 121; neuronal proliferation, DAPI [3, 4]: 305; neuronal proliferation, DAPI [3, 5]: 280; neuronal proliferation, DAPI [3, 6]: 314
10 | vitamin B12 | an association with myelination (myelin water fraction) was observed over time in the brain | –

— US12484608B2, “Nutritional composition and infant formula for promoting de novo myelination” (SOCIETE DES PRODUITS NESTLE S.A., priority 2015, dated 2025)
